Data: ChEMBL document CHEMBL1275295, “Synthesis of some p-toluenesulfonyl-hydrazinothiazoles and hydrazino-bis-thiazoles and their anticancer activity” (Eur J Med Chem, 2010)

Key:
[1] = tested on: DU-145; assay: Inhibition of proliferation of human DU145 cells at 36.2 uM after 72 hrs by XTT assay; format: functional; details: DU-145, 72 h
[2] = tested on: HepG2; assay: Inhibition of proliferation of human HepG2 cells after 72 hrs by XTT assay; format: functional, cell-based; details: HepG2, 72 h
[3] = tested on: DU-145; assay: Inhibition of proliferation of human DU145 cells after 72 hrs by XTT assay; format: functional, cell-based; details: DU-145, 72 h
[4] = tested on: HepG2; assay: Inhibition of proliferation of human HepG2 cells at 51 uM after 72 hrs by XTT assay; format: functional; details: HepG2, 72 h
[5] = tested on: DU-145; assay: Inhibition of proliferation of human DU145 cells at 44.2 uM after 72 hrs by XTT assay; format: functional; details: DU-145, 72 h
[6] = tested on: HepG2; assay: Inhibition of proliferation of human HepG2 cells at 36.2 uM after 72 hrs by XTT assay; format: functional; details: HepG2, 72 h
[7] = tested on: HepG2; assay: Inhibition of proliferation of human HepG2 cells at 34.1 uM after 72 hrs by XTT assay; format: functional; details: HepG2, 72 h
[8] = tested on: DU-145; assay: Inhibition of proliferation of human DU145 cells at 34.1 uM after 72 hrs by XTT assay; format: functional; details: DU-145, 72 h
[9] = tested on: DU-145; assay: Inhibition of proliferation of human DU145 cells at 35.2 uM after 72 hrs by XTT assay; format: functional; details: DU-145, 72 h
[10] = tested on: HepG2; assay: Inhibition of proliferation of human HepG2 cells at 35.2 uM after 72 hrs by XTT assay; format: functional; details: HepG2, 72 h
[11] = tested on: DU-145; assay: Inhibition of proliferation of human DU145 cells at 38.5 uM after 72 hrs by XTT assay; format: functional; details: DU-145, 72 h
[12] = tested on: DU-145; assay: Inhibition of proliferation of human DU145 cells at 102 uM after 72 hrs by XTT assay; format: functional; details: DU-145, 72 h
[13] = tested on: HepG2; assay: Inhibition of proliferation of human HepG2 cells at 44.2 uM after 72 hrs by XTT assay; format: functional; details: HepG2, 72 h
[14] = tested on: HepG2; assay: Inhibition of proliferation of human HepG2 cells at 72.5 uM after 72 hrs by XTT assay; format: functional; details: HepG2, 72 h

Structure (SMILES) | IC50 [2] [µM] | IC50 [3] [µM] | further results
CC(=O)N(c1nc(CCl)cs1)N(C(C)=O)S(=O)(=O)c1ccc(C)cc1 | > 62.3 | > 62.3 | –
CCOC(=O)c1sc(N(C(C)=O)N(C(C)=O)S(=O)(=O)c2ccc(C)cc2)nc1C | > 57 | > 57 | –
CC(=O)c1sc(N(C(C)=O)N(C(C)=O)S(=O)(=O)c2ccc(C)cc2)nc1C | 57.4 | 53.5 | –
CCOC(=O)Cc1csc(N(C(C)=O)N(C(C)=O)S(=O)(=O)c2ccc(C)cc2)n1 | 11 | 46.4 | –
CC(=O)N(c1nc(-c2ccccc2)cs1)N(C(C)=O)S(=O)(=O)c1ccc(C)cc1 | > 58.3 | > 58.3 | –
CCOC(=O)Cc1csc(N(NC(=O)c2csc(-c3ccccc3)n2)C(C)=O)n1 | > 58.1 | > 58.1 | –
O=C(NNc1nc(CCl)cs1)c1csc(-c2ccccc2)n1 | 11.2 | 49.2 | –

Stronger by IC50 [2], values ahead:

IC50 [2] [µM] | IC50 [3] [µM] | Structure (SMILES) | further results
9.16 | 9.07 | Cc1ccc(S(=O)(=O)NNc2nc(-c3ccccc3)cs2)cc1 | inhibition at 36.2 µM [1]: 100%; inhibition at 51 µM [4]: 100%
< 5.65 | 6.96 | Cc1ccc(S(=O)(=O)NNc2nc(C)cs2)cc1 | inhibition at 44.2 µM [5]: 100%; inhibition at 36.2 µM [6]: 100%
7.36 | 7.63 | CC(=O)N(c1nc(C)cs1)N(C(C)=O)S(=O)(=O)c1ccc(C)cc1 | inhibition at 34.1 µM [7]: 100%; inhibition at 34.1 µM [8]: 100%
< 2.94 | < 2.94 | COc1cccc2c1C(=O)c1c(O)c3c(c(O)c1C2=O)C[C@@](O)(C(=O)CO)C[C@@H]3O[C@H]1C[C@H](N)[C@H](O)[C@H](C)O1 [DOXORUBICIN] | –
< 4.51 | 4.68 | CCOC(=O)c1sc(NNS(=O)(=O)c2ccc(C)cc2)nc1C | inhibition at 35.2 µM [9]: 100%; inhibition at 35.2 µM [10]: 100%
8.77 | 9.84 | CC(=O)c1sc(NNS(=O)(=O)c2ccc(C)cc2)nc1C | inhibition at 38.5 µM [11]: 100%
8.98 | 8.98 | Cc1ccc(S(=O)(=O)NNC(N)=S)cc1 | inhibition at 102 µM [12]: 100%; inhibition at 44.2 µM [13]: 100%; inhibition at 72.5 µM [14]: 100%
